The results in this text go back to article PMC7497641, “Neurotropic activity and safety of methylene-cycloalkylacetate (MCA) derivative 3-(3-allyl-2-methylenecyclohexyl) propanoic acid” (ACS Chemical Neuroscience, 2020).

The target of data set [1] is Kv7.1/KCNE Potassium voltage-gated channel (KvLQT1/minK) (Homo sapiens, UniProt P51787). The experiment in a line: SAFETYscan Ion channel assay. Format: cell-based. The following applies: read-out: RC50 (the source's name).
Data set [2] deals with T1, Dopamine transporter (DAT) (Homo sapiens, UniProt Q01959).
T1 construct: host or cells: unnamed DiscoverX cell line
T1 sequence (Q01959 whole entry): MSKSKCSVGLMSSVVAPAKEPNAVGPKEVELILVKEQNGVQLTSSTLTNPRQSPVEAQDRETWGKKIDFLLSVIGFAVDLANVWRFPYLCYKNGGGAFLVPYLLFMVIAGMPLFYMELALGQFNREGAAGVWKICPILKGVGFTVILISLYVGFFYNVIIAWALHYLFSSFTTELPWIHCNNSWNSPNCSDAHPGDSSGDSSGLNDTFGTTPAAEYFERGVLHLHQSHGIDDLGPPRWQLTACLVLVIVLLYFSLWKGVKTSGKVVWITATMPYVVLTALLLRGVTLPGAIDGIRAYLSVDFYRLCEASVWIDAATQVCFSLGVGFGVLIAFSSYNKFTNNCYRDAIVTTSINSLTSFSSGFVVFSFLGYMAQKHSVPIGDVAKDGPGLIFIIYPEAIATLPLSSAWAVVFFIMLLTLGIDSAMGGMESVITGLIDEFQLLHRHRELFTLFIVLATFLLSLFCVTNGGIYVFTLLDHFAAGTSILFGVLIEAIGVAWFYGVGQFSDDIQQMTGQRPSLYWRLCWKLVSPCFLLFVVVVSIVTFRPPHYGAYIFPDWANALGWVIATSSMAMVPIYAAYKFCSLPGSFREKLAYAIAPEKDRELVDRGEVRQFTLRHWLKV
The experiment in a line: SAFETYscan Transporter assay. Format: cell-based.

For data set [3], the target named is T2, cGMP-inhibited cyclic nucleotide phospho-diesterase 3A (PDE3A) (Homo sapiens, UniProt Q14432).
T2 construct: purchased Signal Chem
T2 sequence (Q14432 whole entry): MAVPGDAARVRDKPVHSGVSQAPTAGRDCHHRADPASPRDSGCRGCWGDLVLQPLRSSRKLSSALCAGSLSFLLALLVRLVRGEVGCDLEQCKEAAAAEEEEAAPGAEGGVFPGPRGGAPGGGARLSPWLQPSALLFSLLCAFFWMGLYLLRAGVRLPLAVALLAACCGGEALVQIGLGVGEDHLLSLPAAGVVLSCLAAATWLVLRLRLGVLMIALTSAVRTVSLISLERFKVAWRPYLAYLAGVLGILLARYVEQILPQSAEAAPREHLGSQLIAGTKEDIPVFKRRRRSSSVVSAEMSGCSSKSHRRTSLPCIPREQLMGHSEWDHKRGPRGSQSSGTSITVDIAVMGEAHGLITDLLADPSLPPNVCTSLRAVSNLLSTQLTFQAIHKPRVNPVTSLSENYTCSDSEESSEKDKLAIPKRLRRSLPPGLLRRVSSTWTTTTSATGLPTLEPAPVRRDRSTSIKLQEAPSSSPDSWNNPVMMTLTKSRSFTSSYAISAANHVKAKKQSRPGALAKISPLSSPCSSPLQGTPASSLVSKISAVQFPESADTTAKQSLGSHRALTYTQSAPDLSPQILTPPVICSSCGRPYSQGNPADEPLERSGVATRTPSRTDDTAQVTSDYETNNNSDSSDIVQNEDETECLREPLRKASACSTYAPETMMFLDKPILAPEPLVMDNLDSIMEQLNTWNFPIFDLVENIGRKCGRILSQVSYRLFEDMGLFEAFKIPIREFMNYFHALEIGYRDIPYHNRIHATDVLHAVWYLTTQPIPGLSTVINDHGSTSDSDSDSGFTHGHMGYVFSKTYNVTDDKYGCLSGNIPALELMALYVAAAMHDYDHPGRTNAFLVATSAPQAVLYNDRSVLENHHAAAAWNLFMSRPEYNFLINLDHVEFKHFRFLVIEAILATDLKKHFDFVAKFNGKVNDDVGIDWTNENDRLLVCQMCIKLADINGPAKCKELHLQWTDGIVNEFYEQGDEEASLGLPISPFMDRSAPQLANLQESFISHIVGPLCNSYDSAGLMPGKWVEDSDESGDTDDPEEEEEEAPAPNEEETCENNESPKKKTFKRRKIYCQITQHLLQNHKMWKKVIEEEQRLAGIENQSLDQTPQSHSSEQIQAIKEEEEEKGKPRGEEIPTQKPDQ
The experiment in a line: SAFETYscan Enzymatic assay. Format: biochemical. The settings on record: Inhibitor.

In data set [4] the target is T3, Cyclooxygenase 1 (COX 1) (Homo sapiens, UniProt P23219).
T3 construct: purchased BPS Bioscience
T3 sequence (P23219 24-599): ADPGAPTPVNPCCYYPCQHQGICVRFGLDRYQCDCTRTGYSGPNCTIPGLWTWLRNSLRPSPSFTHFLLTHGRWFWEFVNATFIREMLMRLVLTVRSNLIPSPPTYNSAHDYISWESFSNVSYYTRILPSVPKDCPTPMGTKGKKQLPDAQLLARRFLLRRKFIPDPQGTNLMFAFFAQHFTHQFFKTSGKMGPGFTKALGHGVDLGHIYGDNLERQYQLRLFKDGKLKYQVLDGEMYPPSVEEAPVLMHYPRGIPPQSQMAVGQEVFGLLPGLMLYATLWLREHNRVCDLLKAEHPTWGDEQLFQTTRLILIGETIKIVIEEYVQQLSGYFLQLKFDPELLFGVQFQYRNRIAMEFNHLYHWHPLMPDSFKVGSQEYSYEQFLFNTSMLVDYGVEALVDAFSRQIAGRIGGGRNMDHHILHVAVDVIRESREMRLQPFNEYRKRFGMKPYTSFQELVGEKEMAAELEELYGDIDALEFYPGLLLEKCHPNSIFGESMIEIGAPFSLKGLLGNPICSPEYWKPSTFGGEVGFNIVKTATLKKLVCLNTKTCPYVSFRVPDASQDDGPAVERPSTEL
In words: biochemical. The following applies: Inhibitor, Enzymatic.

Data set [5] in a line: Blood hematology and biochemistry after intravenous injection. Format: in vivo. The following applies: 250 mg/kg IV; 24 h from injection.
For data set [6], the target named is T4, TRK B (Homo sapiens, UniProt Q16620).
T4 construct: TRKB, amino acids 456 -822, BPS Bio; purchased BPS Bio 40281 (lot 130826)
T4 sequence (Q16620 456-822): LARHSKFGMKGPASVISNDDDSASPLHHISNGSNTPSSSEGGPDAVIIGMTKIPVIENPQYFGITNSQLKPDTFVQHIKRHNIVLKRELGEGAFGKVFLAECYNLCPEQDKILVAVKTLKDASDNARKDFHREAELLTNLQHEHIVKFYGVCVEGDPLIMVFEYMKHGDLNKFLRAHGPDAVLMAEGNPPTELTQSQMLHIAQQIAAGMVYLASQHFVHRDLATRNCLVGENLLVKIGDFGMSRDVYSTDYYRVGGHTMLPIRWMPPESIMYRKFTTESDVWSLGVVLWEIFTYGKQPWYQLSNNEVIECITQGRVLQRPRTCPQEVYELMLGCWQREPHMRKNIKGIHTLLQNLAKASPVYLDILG
In words: PhosphoSens CSox based kinase assay. It counts as biochemical. The following applies: 5 μM HU-MCA-13; intracellular kinase domain. An excerpt: (§1) The initial focus was to measure the modulatory activity in vitro of MCA-13 on protein kinases which were reported to be involved in induction of neurite outgrowth.[18],[43] To do this, we took advantage of a powerful method to measure the activity of recombinant protein kinases using a homogeneous and continuous (kinetic) format, where the level of chelation-enhanced fluorescence (CHEF) is directly proportional to the amount of phosphorylated, real-time sensors consisting of sulfonamido-oxine (Sox) chromophore linked to a peptide or protein substrates of selective kinases.[44] This assay is ideal for elucidating drug mechanism of action and is increasingly being applied earlier in the drug development workflow to address off target effects and/or the challenges and opportunities for next generation protein kinase inhibitors.[45] Since neurotrophins induce neurite outgrowth by activating the different tropomyosin kinase receptors (Trk), and small molecules agonists of Trk receptors can selectively activate Trks,[46] we first investigated the ability of HU-MCA-13 to modulate TRKA, TRKB and TRKC phosphorylation activities (Supporting Information, Figure S3-2). […] The TRKs constructs used in the assay contained only the intracellular kinase domain (amino acids 442–786) and therefore presently we cannot exclude that HU-MCA-13 may interact with the TRKs extracellular domain thereby inducing the conformational change required for the kinase domain activation. […] Moreover, no effects of HU-MCA-13were found on other kinases (ASK1, ERK2, JNK3, p38α, CDK5, KDR-VEGFR, AKT1, GSK3β, PDGFRβ, PKACα, PKC, CK1, IKKβ) which stimulate neurite outgrowth. Also, no effects were observed of HU-MCA-13 on kinases (EGFR, IGF1R, FGFR 1 and 2, CAMK2α,) which inhibit neurite outgrowth or calcineurin phosphatase which dephosphorylates the neurite outgrowth stimulatory protein, cofilin.[47]
(§2) MCA-13 safety b y in vitro eval uati on usi ng Phos pho Sens®C Soxb ased kinase […]
(§3) Method: Kinase Activity Measurements
(§4) Kinase activity was measured continuously using the PhosphoSens®technology (AssayQuant Technologies Inc., Marlborough, MA) according to the manufacturers’ recommendations (http://www.assayquant.com/) . This one-step homogeneous assay use s chelation-enh anced fluorescence via optimized substrate sensors unique for each kinase, containing the unnatural fluorogenic amino-acid Sox.
(§5) The following kinases which, upon stimulation or inhibition with small molecule modulators, induced neurite outgrowth, were obtained from different companies and were used in this study at the following concentrations: 2.
(§6) 25 µL final reaction volume including : 2.5 µl Sox-based substrate (10 x), 17.5 µl reaction mix with AT P, 5.0 µL Kinase [5x in EDB (Enzyme Dilution Buffer : 20 mM TRIS, pH 8.0, 0.01% Brij -35, 0.1 mM EGTA, 5% Glycerol, 1 mM DTT, 1 mg/mL Bovine Serum Albumin]. 5-45 min preincubation (all except EDB/kinase) at 30 °C of substrate in reaction mix and ATP ensuring that the progress kinetic curve for the background fluorescence w as flat. Reaction was run at 30 °C for […]
(§7) Final Reaction Conditions.
(§8) Protein kinase activity was determined in 54 mM HEPES, pH 7.5 1 mM ATP 1.2 mM DTT (none in ASK1) 0.012% Brij-35 1% glycerol 0.2 mg/ml BSA 0.52 mM EGTA (none in assays of CAMK2α, PKCε, PKCι, Calcineurin A/B) 140 µM phosphatidylserine/3.8 µM diacylglycerol (PKCε, PKCι only) 5 ng/µl calmodulin/0.4 mM CaCl2 (CAMK2α, Calcineurin A/B only) 10 mM […]
(§9) IKKβ, AKT1, GSK3β, PKCε, PKCι, PKACα, KDR, CK1δ, EGFR, ASK1, IGF1R, CAMK2α, DLK, FGFR2, FGFR1) in the presence or absence of 5 µ M H U-MCA-13 test compound. All components e xcept enzyme were equilibrated to 30 °C prior to setting up reactions run in Corning, 384-well, white flat round bottom polystyrene NBS microplates (Cat. #3824) after sealing using optically-clear adhesive film [TopSealA -Plus plate seal, PerkinElmer (Cat. #6050185)], applied with a roller to eliminate evaporation and resulting drift. Europium was added to a final […]

Data set [7] deals with T5, KDR-VEGFR (Homo sapiens, UniProt P35968).
T5 construct: KDR, amino acids 790 -1356, Carna (cat. & lot #: 08 -191,; purchased Carna 08-191
T5 sequence (P35968 790-1356): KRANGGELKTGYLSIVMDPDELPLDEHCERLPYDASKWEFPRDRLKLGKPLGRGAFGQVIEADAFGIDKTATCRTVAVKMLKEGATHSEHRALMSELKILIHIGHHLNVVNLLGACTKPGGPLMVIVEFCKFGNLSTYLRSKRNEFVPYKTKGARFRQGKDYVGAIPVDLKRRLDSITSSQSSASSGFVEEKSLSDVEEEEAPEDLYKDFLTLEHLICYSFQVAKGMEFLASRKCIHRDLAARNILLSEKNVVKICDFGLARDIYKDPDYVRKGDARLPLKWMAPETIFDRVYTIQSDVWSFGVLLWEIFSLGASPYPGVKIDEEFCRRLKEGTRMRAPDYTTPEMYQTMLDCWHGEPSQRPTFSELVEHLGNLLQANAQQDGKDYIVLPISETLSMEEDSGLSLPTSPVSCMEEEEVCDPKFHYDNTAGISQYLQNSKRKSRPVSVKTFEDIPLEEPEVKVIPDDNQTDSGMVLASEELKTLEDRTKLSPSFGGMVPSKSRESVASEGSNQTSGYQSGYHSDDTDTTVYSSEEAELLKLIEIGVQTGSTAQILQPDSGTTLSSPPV
In words: PhosphoSens CSox based kinase assay. The settings on record: 5 μM HU-MCA-13. It counts as biochemical.
Excerpt: as §1, §2, §3, §4, §5, §6, §7, §8, §9

Data set [8] has as its target T6, CK1 (Homo sapiens, UniProt P48730).
T6 construct: CK1δ, amino acids 1 -294, Carna; purchased Carna 03-103
The experiment in a line: PhosphoSens CSox based kinase assay. Format: biochemical. The settings on record: 5 μM HU-MCA-13.
Excerpt: as §1, §2, §3, §4, §5, §6, §7, §8, §9

Data set [9] has as its system PKC. The experiment in a line: PhosphoSens CSox based kinase assay. The following applies: 5 μM HU-MCA-13. Format: biochemical.
Excerpt: as §1, §2, §3, §4, §5, §6, §7, §8, §9

Data set [10] addresses T7, FGFR 2 (Homo sapiens, UniProt P21802).
T7 construct: purchased Carna 08-134
In words: PhosphoSens CSox based kinase assay. It counts as biochemical. The settings on record: 5 μM HU-MCA-13.
Excerpt: as §1, §2, §3, §4, §5, §6, §7, §8, §9

Data set [11] concerns the target T8, Lymphocyte Cell-Specific Protein-Tyrosine Kinase (Src family) (LCK) (Homo sapiens, UniProt P06239).
T8 construct: host or cells: E. coli BL21-derived host (T7 phage) or HEK-293
In words: SAFETYscan KINOMEscan binding assay. The settings on record: Inhibitor.

Data set [12] deals with T9, Serotonin transporter (SERT) (Homo sapiens, UniProt P31645).
T9 construct: host or cells: unnamed DiscoverX cell line
T9 sequence (P31645 whole entry): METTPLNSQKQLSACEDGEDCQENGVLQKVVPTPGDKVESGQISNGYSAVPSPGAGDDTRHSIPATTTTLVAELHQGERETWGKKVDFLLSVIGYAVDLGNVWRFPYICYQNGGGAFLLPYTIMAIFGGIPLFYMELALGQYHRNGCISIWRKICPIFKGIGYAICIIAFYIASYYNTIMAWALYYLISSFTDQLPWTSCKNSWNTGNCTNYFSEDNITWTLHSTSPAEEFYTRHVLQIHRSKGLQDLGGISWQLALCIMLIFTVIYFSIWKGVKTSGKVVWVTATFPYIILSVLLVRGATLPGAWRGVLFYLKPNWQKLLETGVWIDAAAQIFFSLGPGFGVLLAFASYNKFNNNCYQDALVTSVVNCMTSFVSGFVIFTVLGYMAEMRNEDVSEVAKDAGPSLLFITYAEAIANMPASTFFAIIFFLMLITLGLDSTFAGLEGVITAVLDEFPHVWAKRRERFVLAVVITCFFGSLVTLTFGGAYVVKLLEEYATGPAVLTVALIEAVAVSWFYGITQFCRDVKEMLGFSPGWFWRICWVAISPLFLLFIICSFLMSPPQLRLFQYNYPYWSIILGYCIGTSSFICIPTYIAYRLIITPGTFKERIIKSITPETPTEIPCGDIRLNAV
In words: cell-based. The following applies: Blocker.

[13] abbreviates: 10 μM, read-out: MCA-13 Max. Responce.
Setting [14] is: read-out: RC50 (the source's name).

Some results are limits rather than exact numbers.

T8 sequence (P06239 whole entry): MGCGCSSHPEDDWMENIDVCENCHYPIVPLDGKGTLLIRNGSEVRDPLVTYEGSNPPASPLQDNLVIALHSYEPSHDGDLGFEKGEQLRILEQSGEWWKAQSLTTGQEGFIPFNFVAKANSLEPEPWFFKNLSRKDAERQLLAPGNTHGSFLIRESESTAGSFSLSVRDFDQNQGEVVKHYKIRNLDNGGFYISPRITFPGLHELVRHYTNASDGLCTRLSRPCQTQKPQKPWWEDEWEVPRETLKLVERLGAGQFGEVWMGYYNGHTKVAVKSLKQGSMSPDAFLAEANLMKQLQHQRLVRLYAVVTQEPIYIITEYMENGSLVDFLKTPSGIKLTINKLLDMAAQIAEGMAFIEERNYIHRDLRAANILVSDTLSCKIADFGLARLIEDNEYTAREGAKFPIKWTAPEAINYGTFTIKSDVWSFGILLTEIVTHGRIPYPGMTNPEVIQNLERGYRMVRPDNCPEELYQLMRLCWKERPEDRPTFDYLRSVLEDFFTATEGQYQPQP
T6 sequence (P48730 1-294): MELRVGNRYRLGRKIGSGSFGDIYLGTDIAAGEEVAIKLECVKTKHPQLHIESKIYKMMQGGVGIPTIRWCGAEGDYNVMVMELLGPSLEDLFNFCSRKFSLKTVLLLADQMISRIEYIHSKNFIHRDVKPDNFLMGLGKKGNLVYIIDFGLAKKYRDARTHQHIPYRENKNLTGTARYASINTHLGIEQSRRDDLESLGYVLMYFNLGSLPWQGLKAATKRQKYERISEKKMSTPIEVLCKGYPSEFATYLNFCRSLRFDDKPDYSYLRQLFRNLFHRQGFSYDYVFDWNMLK

Take `C=CCC1CCCC(CCC(=O)O)C1=C` (stereo not shown) [HU-MCA-13, 3-(3-allyl-2-methylenecyclohexyl)propanoic acid]: the IC50 in data set [1] (Blocker), in data set [2], in [3] (setting [14]), in data set [4] (setting [14]), in data set [11] (setting [14]) and in data set [12] (setting [14]) was above 10 µM in each case. Moreover, in [1] (Opener), the EC50 was above 10 µM. Besides, the inhibition at 10 µM in [2] (10 μM, Blocker, Transporter, read-out: MCA-13 Max. Responce) came out at 0%; in data set [3] (setting [13]), 3.21%; in [4] (setting [13]), 25%; in data set [11] (setting [13]), 12.8%; in data set [12] (setting [13]) it was 15.4%. In addition, the “bilirubin concentration versus DMSO” value in [5] is recorded as “small significant increase”. Besides, the “blood count versus DMSO” value in data set [5] is on record as “No difference”. Further, the “coagulation parameters versus DMSO” value in data set [5] was “No difference”. For the same compound, in data set [5], the “electrolytes versus DMSO” value is recorded as “No difference”. Moreover, the “kidney and liver parameters versus DMSO” value in data set [5] is on record as “lack of differences”. Further, the “modulation of phosphorylation activity” value in data set [6] was “no effects”. The “effect on kinase activity” value in data set [7], in [8], in data set [9] and in data set [10] was “no effects” each time.
